Experimental data taken from paper PMC2074754, “Effects of the selective bisindolylmaleimide protein kinase C inhibitor GF 109203X on P-glycoprotein-mediated multidrug resistance” (British Journal of Cancer, 1996).

Key:
[1] = target: T1, P-glycoprotein (P-gp, MDR1) (Homo sapiens, UniProt P08183); test: radioligand binding with self-competition by unlabelled vinblastine
T1 construct: gene ABCB1

[2] = target: T1, P-glycoprotein (P-gp, MDR1); test: [3H]vinblastine radioligand competition and inhibition of [3H]azidopine photoaffinity labelling of the […] kDa P-gp band; assay type: binding

T1 sequence (P08183 whole entry): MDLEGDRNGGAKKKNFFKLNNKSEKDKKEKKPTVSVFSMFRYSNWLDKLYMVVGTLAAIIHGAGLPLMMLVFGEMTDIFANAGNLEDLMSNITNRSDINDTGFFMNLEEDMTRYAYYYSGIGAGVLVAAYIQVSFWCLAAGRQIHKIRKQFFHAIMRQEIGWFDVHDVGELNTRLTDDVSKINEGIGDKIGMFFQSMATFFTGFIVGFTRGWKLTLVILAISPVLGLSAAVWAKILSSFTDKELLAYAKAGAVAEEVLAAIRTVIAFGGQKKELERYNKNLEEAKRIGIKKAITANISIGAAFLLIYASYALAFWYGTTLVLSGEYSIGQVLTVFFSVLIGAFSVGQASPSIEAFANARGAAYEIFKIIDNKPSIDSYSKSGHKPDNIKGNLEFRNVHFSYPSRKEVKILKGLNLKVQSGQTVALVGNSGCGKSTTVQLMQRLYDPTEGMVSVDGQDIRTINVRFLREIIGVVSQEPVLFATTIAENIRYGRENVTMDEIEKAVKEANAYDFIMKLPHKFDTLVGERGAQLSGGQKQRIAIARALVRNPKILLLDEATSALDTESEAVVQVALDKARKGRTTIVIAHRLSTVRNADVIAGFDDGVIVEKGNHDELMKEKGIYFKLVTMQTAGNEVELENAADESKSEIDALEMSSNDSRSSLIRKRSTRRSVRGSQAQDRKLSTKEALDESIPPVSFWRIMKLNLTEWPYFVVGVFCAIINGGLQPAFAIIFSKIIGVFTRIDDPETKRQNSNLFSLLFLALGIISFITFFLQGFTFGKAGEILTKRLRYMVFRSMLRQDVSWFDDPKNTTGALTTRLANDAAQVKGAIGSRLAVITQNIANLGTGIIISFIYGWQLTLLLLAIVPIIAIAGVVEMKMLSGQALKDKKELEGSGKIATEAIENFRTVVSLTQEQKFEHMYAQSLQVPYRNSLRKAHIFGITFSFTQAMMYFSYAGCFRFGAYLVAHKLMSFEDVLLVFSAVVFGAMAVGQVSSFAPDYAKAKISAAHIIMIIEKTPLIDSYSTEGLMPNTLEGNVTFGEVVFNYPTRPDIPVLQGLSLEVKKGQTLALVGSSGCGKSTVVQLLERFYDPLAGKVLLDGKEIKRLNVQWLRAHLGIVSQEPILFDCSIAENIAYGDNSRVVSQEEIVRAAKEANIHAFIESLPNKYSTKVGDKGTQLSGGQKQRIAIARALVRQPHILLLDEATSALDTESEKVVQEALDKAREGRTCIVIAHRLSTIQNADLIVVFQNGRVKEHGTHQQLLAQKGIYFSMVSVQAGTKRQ

CC[C@]1(O)C[C@@H]2CN(CCc3c([nH]c4ccccc34)[C@@](C(=O)OC)(c3cc4c(cc3OC)N(C)[C@H]3[C@@](O)(C(=O)OC)[C@H](OC(C)=O)[C@]5(CC)C=CCN6CC[C@]43[C@@H]65)C2)C1 [vinblastine sulphate]
radioligand binding with self-competition by unlabelled vinblastine [1]: Competition of [3H]vinblastine sulphate binding by unlabelled vinblastine sulphate was included as a control.

CN(C)CCCn1cc(C2=C(c3c[nH]c4ccccc34)C(=O)NC2=O)c2ccccc21 [GF 109203X]
[3H]vinblastine radioligand competition and inhibition of [3H]azidopine photoaff [2]: Inhibition of the photo- affinity labelling was observed in a similar micromolar
